Data taken from US10988459B2 (priority 2015, dated 2021).

Target: human RIP1 kinase domain (2-375) (Homo sapiens (Human), UniProt Q13546)
Assay: biochemical
Type: biochemical
Conditions: Table 5; apparent Ki (Morrison tight-binding fit); 50 nM RIP1 kinase domain, 50 uM ATP, 2 hours incubation; read-out: Ki
How it was run: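 50 nM purified kinase domain from baculovirus-infected insect cells, incubated 2 h with compound in 50 mM Hepes pH 7.5, 30 mM MgCl2, 1 mM DTT, 50 uM ATP, 0.002% Brij-35, 0.5% DMSO. ADP formation read by Transcreener FP at 633 nm excitation. Ki^app fitted with the Morrison tight-binding equation.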

Chain of human RIP1 kinase domain (2-375) (Q13546 2-375): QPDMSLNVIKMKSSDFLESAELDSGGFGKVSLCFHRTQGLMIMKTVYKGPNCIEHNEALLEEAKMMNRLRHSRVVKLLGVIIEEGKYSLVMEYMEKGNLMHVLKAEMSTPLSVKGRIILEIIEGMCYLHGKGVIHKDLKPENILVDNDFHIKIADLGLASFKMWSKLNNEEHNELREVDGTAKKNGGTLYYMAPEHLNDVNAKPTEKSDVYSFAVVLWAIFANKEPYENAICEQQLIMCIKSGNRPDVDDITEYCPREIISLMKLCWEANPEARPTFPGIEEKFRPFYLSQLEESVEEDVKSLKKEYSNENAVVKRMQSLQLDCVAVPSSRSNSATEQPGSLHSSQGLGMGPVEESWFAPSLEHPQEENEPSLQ

In order of rising Ki:
1. CN1C(=O)[C@@H](NC(=O)c2cc3c(-c4ccccc4F)cccn3n2)COc2ccccc21 [Example 708, 4-(2-fluorophenyl)-N-[(3S)-5-methyl-4-oxo-2,3-dihydro-1,5-benzoxazepin-3-yl]pyrazolo[1,5-a]pyridine-2-carboxamide]  4 nM
2. CN1C(=O)[C@@H](NC(=O)c2cc3c(-c4ccccc4)cccn3n2)COc2ccccc21 [Example 713, 4-phenyl-N-[(3S)-5-methyl-4-oxo-2,3-dihydro-1,5-benzoxazepin-3-yl]pyrazolo[1,5-a]pyridine-2-carboxamide]  5 nM
3. CN1C(=O)[C@@H](NC(=O)c2cc3n(n2)CCC[C@H]3c2ccccc2F)COc2ccccc21 [Example 710, (4S)-4-(2-fluorophenyl)-N-[(3S)-5-methyl-4-oxo-2,3-dihydro-1,5-benzoxazepin-3-yl]-4,5,6,7-tetrahydropyrazolo[1,5-a]pyridine-2-carboxamide]  9 nM
4. CN1C(=O)[C@@H](NC(=O)c2cc3c(cn2)CO[C@]3(C)C(F)(F)F)COc2ccccc21 [Example 742, (1S)-1-methyl-N-[(3S)-5-methyl-4-oxo-2,3-dihydro-1,5-benzoxazepin-3-yl]-1-(trifluoromethyl)-3H-furo[3,4-c]pyridine-6-carboxamide]  10 nM
5. CN1C(=O)[C@@H](NC(=O)c2cc3c(cn2)CO[C@@]3(C)C(F)(F)F)COc2ccccc21 [Example 744, (1R)-1-methyl-N-[(3S)-5-methyl-4-oxo-2,3-dihydro-1,5-benzoxazepin-3-yl]-1-(trifluoromethyl)-3H-furo[3,4-c]pyridine-6-carboxamide]  10 nM
6. CN1C(=O)[C@@H](NC(=O)c2ncc3c(n2)[C@](C)(C(F)(F)F)OC3)COc2ccccc21 [Example 745, (7R)-7-methyl-N-[(3S)-5-methyl-4-oxo-2,3-dihydro-1,5-benzoxazepin-3-yl]-7-(trifluoromethyl)-5H-furo[3,4-d]pyrimidine-2-carboxamide]  12 nM
7. Cc1cc2n(n1)CC[C@H](NC(=O)c1cc3c(-c4ccccc4)cccn3n1)C(=O)N2C [Example 714, (S)—N-(2,4-dimethyl-5-oxo-5,6,7,8-tetrahydro-4H-pyrazolo[1,5-a][1,3]diazepin-6-yl)-4-phenylpyrazolo[1,5-a]pyridine-2-carboxamide]  13 nM
8. CN1C(=O)[C@@H](NC(=O)c2nc3n(n2)[C@H](c2ccccc2)CCC3)COc2ccccc21 [Example 735, (S)—N—((S)-5-methyl-4-oxo-2,3,4,5-tetrahydrobenzo[b][1,4]oxazepin-3-yl)-5-phenyl-5,6,7,8-tetrahydro-[1,2,4]triazolo[1,5-a]pyridine-2-carboxamide]  13 nM
9. CN1C(=O)[C@@H](NC(=O)c2ncc3c(n2)[C@@](C)(C(F)(F)F)OC3)COc2ccccc21 [Example 743, (7S)-7-methyl-N-[(3S)-5-methyl-4-oxo-2,3-dihydro-1,5-benzoxazepin-3-yl]-7-(trifluoromethyl)-5H-furo[3,4-d]pyrimidine-2-carboxamide]  17 nM
10. C[C@]1(C(F)(F)F)OCc2cnc(C(=O)N[C@H]3CCc4cc(F)cc(F)c4NC3=O)cc21 [Example 746, (1S)-1-methyl-N-[(3S)-7,9-difluoro-2-oxo-1,3,4,5-tetrahydro-1-benzazepin-3-yl]-1-(trifluoromethyl)-3H-furo[3,4-c]pyridine-6-carboxamide]  23 nM
11. CN1C(=O)[C@@H](NC(=O)c2cc3n(n2)CCC[C@@H]3c2ccccc2F)COc2ccccc21 [Example 709, (4R)-4-(2-fluorophenyl)-N-[(3S)-5-methyl-4-oxo-2,3-dihydro-1,5-benzoxazepin-3-yl]-4,5,6,7-tetrahydropyrazolo[1,5-a]pyridine-2-carboxamide]  34 nM
12. CN1C(=O)[C@@H](NC(=O)c2ncn(Cc3ccccc3)n2)CCn2nc(CCCN3CCC(F)(F)C3)cc21 [Example 739, 1-benzyl-N-[(6S)-2-[3-(3,3-difluoropyrrolidin-1-yl)propyl]-4-methyl-5-oxo-7,8-dihydro-6H-pyrazolo[1,5-a][1,3]diazepin-6-yl]-1,2,4-triazole-3-carboxamide]  36 nM
13. C[C@]1(C(F)(F)F)OCc2cnc(C(=O)N[C@H]3CCc4cc(F)cc(F)c4NC3=O)nc21 [Example 747, (7S)-7-methyl-N-[(3S)-7,9-difluoro-2-oxo-1,3,4,5-tetrahydro-1-benzazepin-3-yl]-7-(trifluoromethyl)-5H-furo[3,4-d]pyrimidine-2-carboxamide]  42 nM
14. CN1C(=O)[C@@H](NC(=O)c2cc3c(cn2)cnn3CCC(F)F)COc2ccccc21 [Example 711, 1-(3,3-difluoropropyl)-N-[(3S)-5-methyl-4-oxo-2,3-dihydro-1,5-benzoxazepin-3-yl]pyrazolo[4,3-c]pyridine-6-carboxamide]  73 nM
15. CN1C(=O)[C@@H](NC(=O)c2ccn(Cc3ccccc3)n2)CCn2nccc21 [Example 740, 1-benzyl-N-[(6S)-4-methyl-5-oxo-7,8-dihydro-6H-pyrazolo[1,5-a][1,3]diazepin-6-yl]pyrazole-3-carboxamide]  137 nM
16. Cc1cc2n(n1)CC[C@H](NC(=O)c1ccn(Cc3ccccc3)n1)C(=O)N2C [Example 741, 1-benzyl-N-[(6S)-2,4-dimethyl-5-oxo-7,8-dihydro-6H-pyrazolo[1,5-a][1,3]diazepin-6-yl]pyrazole-3-carboxamide]  140 nM
17. CN1C(=O)[C@@H](NC(=O)c2nc3n(n2)CCNC3c2ccccc2)COc2ccccc21 (stereo partly drawn) [Example 723, N-[(3S)-5-methyl-4-oxo-2,3-dihydro-1,5-benzoxazepin-3-yl]-8-phenyl-5,6,7,8-tetrahydro-[1,2,4]triazolo[1,5-a]pyrazine-2-carboxamide]  206 nM
18. CN1C(=O)[C@@H](NC(=O)c2nc3n(n2)CCNC3C(F)(F)F)COc2ccccc21 (stereo partly drawn) [Example 731, N—((S)-5-methyl-4-oxo-2,3,4,5-tetrahydrobenzo[b][1,4]oxazepin-3-yl)-8-(trifluoromethyl)-5,6,7,8-tetrahydro-[1,2,4]triazolo[1,5-a]pyrazine-2-carboxamide]  300 nM
19. CN1C(=O)[C@@H](NC(=O)c2ncn(Cc3ccccc3)n2)CCn2nc(Cn3ccnc3)cc21 [Example 707, (S)-1-benzyl-N-[2-(imidazol-1-ylmethyl)-4-methyl-5-oxo-7,8-dihydro-6H-pyrazolo[1,5-a][1, 3]diazepin-6-yl]-1,2,4-triazole-3-carboxamide]  530 nM

Same assay, conditions: tight-binding apparent inhibition constant; human RIP1 kinase domain (2-375) 50 nM, 50 uM ATP, 2 hours; read-out: Ki

In order of falling Ki:
1. Cc1ncccc1Cn1cnc(C(=O)N[C@H]2CCn3nc(C4CC4)cc3N(C)C2=O)n1 [Example 665]  740 nM
2. Cc1cc2n(n1)CC[C@H](NC(=O)c1ncn(Cc3cccnc3C)n1)C(=O)N2C [Example 664, 1-[(2-methyl-3-pyridyl)methyl]-N-(6S)-2,4-dimethyl-5-oxo-7,8-dihydro-6H-pyrazolo[1,5-a][1,3]diazepin-6-yl-1,2,4-triazole-3-carboxamide]  730 nM
3. CN1C(=O)[C@@H](NC(=O)c2nc3n(n2)[C@H](c2ccccc2F)CC3)CCn2nccc21 [Example 669, (5S)-5-(2-fluorophenyl)-N-[(6S)-4-methyl-5-oxo-7,8-dihydro-6H-pyrazolo[1,5-a][1,3]diazepin-6-yl]-6,7-dihydro-5H-pyrrolo[1,2-b][1,2,4]triazole-2-carboxamide]  610 nM
4. Cc1cc2n(n1)CC[C@H](NC(=O)c1nc3n(n1)[C@H](c1ccccc1F)CC3)C(=O)N2C [Example 667, (5S)-5-(2-fluorophenyl)-N-[(6S)-2,4-dimethyl-5-oxo-7,8-dihydro-6H-pyrazolo[1,5-a][1,3]diazepin-6-yl]-6,7-dihydro-5H-pyrrolo[1,2-b][1,2,4]triazole-2-carboxamide]  530 nM
5. Cc1ncccc1Cn1cnc(C(=O)N[C@H]2CCn3nccc3N(C)C2=O)n1 [Example 663, 1-[(2-methyl-3-pyridyl)methyl]-N-(6S)-4-methyl-5-oxo-7,8-dihydro-6H-pyrazolo[1,5-a][1,3]diazepin-6-yl-1,2,4-triazole-3-carboxamide]  420 nM
6. CN1C(=O)[C@@H](NC(=O)c2ncn(Cc3ccccc3)n2)CCn2nc(CCCN3CCOCC3)cc21 [Example 662]  63 nM
7. Cc1cn2c(n1)N(C)C(=O)[C@H](NC(=O)c1ncn(Cc3c(F)cccc3F)n1)CC2 [Example 660, 1-[(2,6-difluorophenyl)methyl]-N-(7R)-2,9-dimethyl-8-oxo-6,7-dihydro-5H-imidazo[1,2-a][1,3]diazepin-7-yl-1,2,4-triazole-3-carboxamide]  62 nM
8. Cc1cn2c(n1)N(C)C(=O)[C@H](NC(=O)c1ncn(Cc3cc(F)ccc3F)n1)CC2 [Example 661, 1-[(2,5-difluorophenyl)methyl]-N-(7R)-2,9-dimethyl-8-oxo-6,7-dihydro-5H-imidazo[1,2-a][1,3]diazepin-7-yl-1,2,4-triazole-3-carboxamide]  57 nM
9. CN1C(=O)[C@@H](NC(=O)c2ncn(Cc3ncccc3Cl)n2)CCn2nc(C3CC3)cc21 [Example 658]  54 nM
10. Cc1cc2n(n1)CC[C@H](NC(=O)c1nc3n(n1)[C@@H](c1ccccc1F)CC3)C(=O)N2C [Example 666, (5R)-5-(2-fluorophenyl)-N-[(6S)-2,4-dimethyl-5-oxo-7,8-dihydro-6H-pyrazolo[1,5-a][1,3]diazepin-6-yl]-6,7-dihydro-5H-pyrrolo[1,2-b][1,2,4]triazole-2-carboxamide]  40 nM
11. Cc1cn2c(n1)N(C)C(=O)[C@H](NC(=O)c1ncn(Cc3ccccc3F)n1)CC2 [Example 659, 1-[(2-fluorophenyl)methyl]-N-(7R)-2,9-dimethyl-8-oxo-6,7-dihydro-5H-imidazo[1,2-a][1,3]diazepin-7-yl-1,2,4-triazole-3-carboxamide]  35 nM
12. CN1C(=O)[C@@H](NC(=O)c2nc3n(n2)[C@@H](c2ccccc2F)CC3)CCn2nccc21 [Example 668, (5R)-5-(2-fluorophenyl)-N-[(6S)-4-methyl-5-oxo-7,8-dihydro-6H-pyrazolo[1,5-a][1,3]diazepin-6-yl]-6,7-dihydro-5H-pyrrolo[1,2-b][1,2,4]triazole-2-carboxamide]  22 nM
